Test results from patent US20260091086A1, “POLYPEPTIDE COMBINATIONS AND USES THEREOF” (MEDIMMUNE LIMITED, priority 2024, published 2026).
Numbered stars: 1 amine (or outer) side, 2 acyl side, 3 side chain; on linkers, the order of the positions; unused ones are H or OH. Square brackets hold non-standard residues; d marks the D form. Side chains are listed from the residue outwards. Ends that are not written are not given here. * marks the point of attachment. C18 diacid = O=C(O)CCCCCCCCCCCCCCCCC(=O)*; γGlu = O=C(O)[C@H](CCC(=O)[*:2])N[*:1]; αMeF = C[C@](N)(Cc1ccccc1)C(=O)O; AEEA = NCCOCCOCC(=O)O; Aib = CC(C)(N)C(=O)O

Key:
[1] = target: human amylin receptor 3 (hAMY3R; complex of hCTR and hRAMP3) (human); assay: cell-based or functional assay
human amylin receptor 3 (hAMY3R; complex of hCTR and hRAMP3) (human), sequence (chain, as listed by the source limits assumed, chain 1 of 2): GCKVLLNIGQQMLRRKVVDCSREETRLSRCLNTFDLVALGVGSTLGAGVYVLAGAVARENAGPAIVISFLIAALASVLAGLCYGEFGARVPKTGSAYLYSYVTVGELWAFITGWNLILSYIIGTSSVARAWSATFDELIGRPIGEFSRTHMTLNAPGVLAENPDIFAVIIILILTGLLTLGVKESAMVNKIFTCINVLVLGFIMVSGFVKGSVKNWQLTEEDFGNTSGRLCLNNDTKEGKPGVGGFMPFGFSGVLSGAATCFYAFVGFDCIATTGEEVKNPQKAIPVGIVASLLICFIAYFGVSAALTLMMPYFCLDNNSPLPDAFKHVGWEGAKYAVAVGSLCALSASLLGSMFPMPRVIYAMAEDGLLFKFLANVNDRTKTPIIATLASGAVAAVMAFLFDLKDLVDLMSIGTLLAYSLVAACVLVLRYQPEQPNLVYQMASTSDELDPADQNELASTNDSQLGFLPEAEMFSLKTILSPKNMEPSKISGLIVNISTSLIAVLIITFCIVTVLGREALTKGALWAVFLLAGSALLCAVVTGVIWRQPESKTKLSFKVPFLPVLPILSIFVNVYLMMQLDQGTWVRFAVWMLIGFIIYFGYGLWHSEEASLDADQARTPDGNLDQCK
human amylin receptor 3 (hAMY3R; complex of hCTR and hRAMP3) (human), sequence (chain, as listed by the source limits assumed, chain 2 of 2): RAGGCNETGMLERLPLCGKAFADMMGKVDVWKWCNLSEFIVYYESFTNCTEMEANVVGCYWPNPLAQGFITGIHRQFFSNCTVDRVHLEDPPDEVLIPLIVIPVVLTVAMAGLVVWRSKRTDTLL

[2] = target: rat amylin receptor (calcitonin receptor plus RAMP3) (rat) (UniProt P32214); assay: cell-based or functional assay
rat amylin receptor (calcitonin receptor plus RAMP3) (rat), sequence (P32214 25-516, chain 1 of 2): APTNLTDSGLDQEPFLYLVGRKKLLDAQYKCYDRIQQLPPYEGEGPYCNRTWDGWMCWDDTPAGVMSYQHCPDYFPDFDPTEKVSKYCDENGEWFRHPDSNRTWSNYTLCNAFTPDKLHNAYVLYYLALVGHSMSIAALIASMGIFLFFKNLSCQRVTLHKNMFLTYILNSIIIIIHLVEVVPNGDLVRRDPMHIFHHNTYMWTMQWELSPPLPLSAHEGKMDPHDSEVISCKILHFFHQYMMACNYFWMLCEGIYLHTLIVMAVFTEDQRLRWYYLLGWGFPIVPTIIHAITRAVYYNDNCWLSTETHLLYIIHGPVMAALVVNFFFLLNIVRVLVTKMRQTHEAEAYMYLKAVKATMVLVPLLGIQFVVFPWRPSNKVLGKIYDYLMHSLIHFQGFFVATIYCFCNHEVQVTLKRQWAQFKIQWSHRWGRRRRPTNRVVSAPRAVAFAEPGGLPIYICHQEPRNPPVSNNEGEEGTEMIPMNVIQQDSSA
rat amylin receptor (calcitonin receptor plus RAMP3) (rat), sequence (Q9JJ73 23-147, chain 2 of 2, further chain): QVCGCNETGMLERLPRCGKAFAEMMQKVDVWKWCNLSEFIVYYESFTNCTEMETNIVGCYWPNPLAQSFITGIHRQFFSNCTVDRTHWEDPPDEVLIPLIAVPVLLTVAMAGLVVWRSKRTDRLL

AMY3R/CTR [3] = assay: Relative potency ratio, cAMP accumulation assays with 0.1% BSA, rat receptors; format: cell-based; details: 0.1% bovine serum albumin, n ≥ 5; potencies relative to pramlintide 100%
Method: Target engagement was estimated in the following way for each compound. The maximum concentration (Cmax) after subcutaneous injection was measured in separate rat pharmacokinetic studies and was dose-adjusted to the tested dose levels when appropriate, assuming dose linearity. Plasma protein binding was determined in vitro using 3B Pharmaceutical's Escalate Equilibrium Shift Assay or an in-house Surface Plasmon Resonance (SPR) assay. Peptide in vitro potency was determined via HTRF CAMP accumulation assay using HEK293 cells recombinantly expressing the rat calcitonin receptor or rat amylin receptor (calcitonin receptor plus RAMP3) in saline buffer containing 0.1% bovine serum albumin. The in vitro potencies (IC50s) for amylin and calcitonin were adjusted to unbound values by taking into account the albumin concentration in the assay and fraction unbound data, according to an established method (Wan H and Bergström F (2007), High Throughput Screening of Drug-Protein Binding in Drug Discovery, Journal of Liquid Chromatography & Related Technologies, 30:5, 681-700; doi: 10.1080/10826070701190989). Finally, the target engagement was calculated as the unbound Cmax divided by the unbound IC50, both for amylin and calcitonin. The Emax model was defined as aversion=E0+Emax×(ENG^h/(ENG^h+ED50^h)), where E0 is the baseline aversion, Emax is the maximum induced aversion, ENG is the receptor engagement, and h is the slope (Hill) parameter. Parameter estimation was performed according to a maximum likelihood approach with an additive error model, incorporating data from all compounds simultaneously. Uncertainty of parameter estimates was determined by bootstrapping, sampling single measurements randomly with replacement within each experiment (N=500). Numeric analyses were performed in MATLAB (R2023b; The MathWorks, Natick, MA). The aversion data are given as mean and standard error (N=9-11 per group). In this experiment, the LAA/SARA1 was that of SEQ ID NO: 11, SARA2 was eloralintide, DACRA1 was cagrilintide, and DACRA2 was petrelintide.

AMY3R/CTR [4] = assay: Relative potency ratio, cAMP accumulation assays with 0.1% BSA, human receptors; format: cell-based; details: 0.1% bovine serum albumin, n ≥ 5; potencies relative to pramlintide 100%
DIO rats = assay: Example 7: 28-day LAA and GLP/GIP dual agonist study; format: in vivo, rat; details: for body weight change: day 28
Method: Study Design: Male rats were fed a high-fat diet (45% kcal fat-D12451; Research Diets) or chow control matched diet (10% kcal fat-D12450K; […] Control rats were dosed SC with Vehicle. Body weight was monitored daily through-out study and body composition measured by EchoMRI at baseline (week-1) and end of study (week 4). […]

Wistar Han rats = assay: Example 4: 3-month subcutaneous study, body weight; format: in vivo, rat; details: for Body Weight Comparison, Day 92 vs. Control Group 1 Day 92 / Body Weight Gain (Day 92 vs Day −1) / Mean Body Weight at Day 92: dose levels 0/5, Group 5
Method: Study Design: Male (9-11 weeks of age) and female (10-11 weeks of age) Wistar Han rats were SC administered with Vehicle/Vehicle (group 1—for LAA of SEQ ID NO: 11 and GLP-1/GCG of SEQ ID NO: 35), LAA of SEQ ID NO: 11 and GLP-1/GCG of SEQ ID NO: 35 (group 2—500 and 5 μg/kg respectively), LAA of SEQ ID NO: 11 and GLP-1/GCG of SEQ ID NO: 35 (group 3—2000 and 5 μg/kg respectively), SEQ ID NO: 11 and Vehicle for SEQ ID NO: 35 (group 4—2000 μg/kg and 0 μg/kg respectively), or Vehicle for SEQ ID NO: 11 and SEQ ID NO: 35 (group 5—0 and 5 μg/kg respectively) daily for 91 days. Dosing for LAA of SEQ ID NO: 11 was dose escalated with group 2 receiving 250 μg/kg from day 1-5 and 500 μg/kg for duration of study, and groups 3 and 4 receiving 250 μg/kg SEQ ID NO: 11 from day 1-5, 500 μg/kg SEQ ID NO: 11 from days 7-13 and 2000 μg/kg for duration of study. There was a n=10/group per gender.

[5] = GLP/GIP mono-treatment 2 nmol/kg
[6] = GLP/GIP mono-treatment 30 nmol/kg

| Compound | Relative potency ratio (AMY3R/CTR), Human; cAMP accumulation assay, 0.1% BSA [1] | Relative potency ratio (AMY3R/CTR), Rat; cAMP accumulation assay, 0.1% BSA [2] | Relative potency ratio (AMY3R/CTR), Rat (AMY3R/CTR [3]) | Relative potency ratio (AMY3R/CTR), Human (AMY3R/CTR [4]) | other results |
| --- | --- | --- | --- | --- | --- |
| DACRA 1 (cagrilintide) (peptide) | 0.08 | 0.01 |  |  |  |
| DACRA 2 (petrelintide) (peptide) | 0.05 | 0.03 |  |  |  |
| eloralintide [SARA 2] |  |  | 0.14 | 0.24 |  |
| tirzepatide [GLP/GIP] |  |  |  |  | change in lean mass (g) (DIO rats; [5]): no effect at 2 nmol/kg; change in lean mass (g) (DIO rats; [6]): significant reduction vs. vehicle; body weight change (DIO rats; [5]): −1.7%; body weight change (DIO rats; [6]): −8.9%; body weight change (DIO rats; mono-treatment 10 nmol/kg SC QD): −8.1%; change in fat mass (g) (DIO rats; end of study (week 4), EchoMRI, FIG. 6C): dose-dependent decrease in fat mass; change in lean mass (g) (DIO rats; end of study, EchoMRI, mono-treatment, FIG. 6D): dose-dependent decrease of lean mass |
| SARA 2 (eloralintide) (peptide) | 0.24 | 0.14 |  |  |  |
| CC[C@H](C)[C@H](NC(=O)[C@@H]1CCCN1C(=O)CNC(=O)[C@H](Cc1ccccc1)NC(=O)[C@H](CC(N)=O)NC(=O)[C@H](CC(N)=O)NC(=O)[C@H](CO)NC(=O)[C@H](CO)NC(=O)[C@H](Cc1c[nH]cn1)NC(=O)[C@@H](NC(=O)[C@H](CC(C)C)NC(=O)[C@H](Cc1ccccc1)NC(=O)[C@H](CC(N)=O)NC(=O)[C@H](C)NC(=O)[C@H](CC(C)C)NC(=O)[C@H](CCCNC(=N)N)NC(=O)[C@H](CCC(N)=O)NC(=O)[C@@H](NC(=O)[C@H](C)NC(=O)[C@@H]1CSSC[C@H](NC(=O)[C@@H](N)CCCCN)C(=O)N[C@@H](CC(N)=O)C(=O)N[C@@H]([C@@H](C)O)C(=O)N[C@@H](C)C(=O)N[C@@H]([C@@H](C)O)C(=O)N1)[C@@H](C)O)C(C)C)C(=O)N[C@@H](CC(C)C)C(=O)N1CCC[C@H]1C(=O)N1CCC[C@H]1C(=O)N[C@H](C(=O)N[C@@H](CC(N)=O)C(=O)N[C@H](C(=O)NCC(=O)N[C@@H](CO)C(=O)N[C@@H](CC(N)=O)C(=O)N[C@H](C(=O)N[C@@H](Cc1ccc(O)cc1)C(N)=O)[C@@H](C)O)C(C)C)[C@@H](C)O [Pramlintide] |  |  | 1.0 | 1.0 |  |
| hAmylin (from UniProt P10997 34-70) (peptide) | 1.8 | 0.9 |  |  |  |
| hAmylin: human amylin, non-lipidated (KCNTATCATQRLANFLVHSSNNFGAILSSTNVGSNTY; not fully specified (C-terminus, bridges); cysteine pairing not given here) |  |  | 0.9 | 1.8 |  |
| petrelintide [DACRA 2] |  |  | 0.03 | 0.05 |  |
| H(Aib)QGTFTSDVSK(αMePhe)LDTK(O2Oc-O2Oc-γE-C18diacid)RARDFVQWLLE(Aib)G-acid (H[Aib]QGTFTSDVSK[αMeF]LDTK([AEEA-AEEA-γGlu-C18 diacid])RARDFVQWLLE[Aib]G-OH; N-terminus assumed; SMILES CC(C)C[C@H](NC(=O)[C@H](Cc1c[nH]c2ccccc12)NC(=O)[C@H](CCC(N)=O)NC(=O)[C@@H](NC(=O)[C@H](Cc1ccccc1)NC(=O)[C@H](CC(=O)O)NC(=O)[C@H](CCCNC(=N)N)NC(=O)[C@H](C)NC(=O)[C@H](CCCNC(=N)N)NC(=O)[C@H](CCCCNC(=O)COCCOCCNC(=O)COCCOCCNC(=O)CC[C@H](NC(=O)CCCCCCCCCCCCCCCCC(=O)O)C(=O)O)NC(=O)[C@@H](NC(=O)[C@H](CC(=O)O)NC(=O)[C@H](CC(C)C)NC(=O)[C@](C)(Cc1ccccc1)NC(=O)[C@H](CCCCN)NC(=O)[C@H](CO)NC(=O)[C@@H](NC(=O)[C@H](CC(=O)O)NC(=O)[C@H](CO)NC(=O)[C@@H](NC(=O)[C@H](Cc1ccccc1)NC(=O)[C@@H](NC(=O)CNC(=O)[C@H](CCC(N)=O)NC(=O)C(C)(C)NC(=O)[C@@H](N)Cc1c[nH]cn1)[C@@H](C)O)[C@@H](C)O)C(C)C)[C@@H](C)O)C(C)C)C(=O)N[C@@H](CC(C)C)C(=O)N[C@@H](CCC(=O)O)C(=O)NC(C)(C)C(=O)NCC(=O)O) [GLP-1/GCG of SEQ ID NO: 35] |  |  |  |  | Body weight at study day 92 vs Vehicle (Wistar Han rats; both male and female, groups 2-5): significantly lower; Body Weight Comparison, Day 92 vs. Control Group 1 Day 92 (Wistar Han rats; female): 90%; Body Weight Gain (Day 92 vs Day −1) (Wistar Han rats; female): 112%; Mean Body Weight at Day 92 (Wistar Han rats; female): 225.4 grams; Body Weight Comparison, Day 92 vs. Control Group 1 Day 92 (Wistar Han rats; male): 80%; Body Weight Gain (Day 92 vs Day −1) (Wistar Han rats; male): 119%; Mean Body Weight at Day 92 (Wistar Han rats; male): 325.5 grams |
